# Publication PMC4928072, “Dietary apigenin potentiates the inhibitory effect of interferon-α on cancer cell viability through inhibition of 26S proteasome-mediated interferon receptor degradation” (Food & Nutrition Research, 2016)
# Tests used:
# Format in all cases: biochemical
# [1] = molecular target: T1, 26S proteasome, β2 subunit (trypsin-like activity) (Homo sapiens, UniProt Q99436); assay: fluorogenic peptidase assay of purified human 26S proteasome with Ac-Arg-Leu-Arg-AMC
# T1 construct: gene PSMB7; purified human 26S proteasome; with other subunits of the 26S proteasome
# T1 sequence (Q99436 44-277): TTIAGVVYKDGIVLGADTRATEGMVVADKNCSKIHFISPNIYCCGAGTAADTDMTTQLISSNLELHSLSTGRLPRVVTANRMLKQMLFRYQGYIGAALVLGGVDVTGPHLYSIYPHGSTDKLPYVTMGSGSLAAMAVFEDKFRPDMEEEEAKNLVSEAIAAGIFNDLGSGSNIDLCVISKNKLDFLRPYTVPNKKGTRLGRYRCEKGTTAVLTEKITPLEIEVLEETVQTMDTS
# [2] = molecular target: T2, 26S proteasome, β5 subunit (chymotrypsin-like activity) (Homo sapiens, UniProt P28074); assay: fluorogenic peptidase assay of purified human 26S proteasome with Suc-Leu-Leu-Val-Tyr-AMC
# T2 construct: gene PSMB5; purified human 26S proteasome; with other subunits of the 26S proteasome
# T2 sequence (P28074 60-263): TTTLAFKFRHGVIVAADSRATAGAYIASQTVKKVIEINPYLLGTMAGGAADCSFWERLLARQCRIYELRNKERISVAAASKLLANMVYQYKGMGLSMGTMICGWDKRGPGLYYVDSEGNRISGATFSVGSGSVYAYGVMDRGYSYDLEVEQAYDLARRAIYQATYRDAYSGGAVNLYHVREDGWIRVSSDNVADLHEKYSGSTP
# [3] = molecular target: T3, 26S proteasome, β1 subunit (caspase-like activity) (Homo sapiens, UniProt P28072); assay: peptidase assay of purified human 26S proteasome with Z-Nle-Pro-Nle-Asp-aminoluciferin
# T3 construct: gene PSMB6; purified human 26S proteasome; with other subunits of the 26S proteasome
# T3 sequence (P28072 35-239): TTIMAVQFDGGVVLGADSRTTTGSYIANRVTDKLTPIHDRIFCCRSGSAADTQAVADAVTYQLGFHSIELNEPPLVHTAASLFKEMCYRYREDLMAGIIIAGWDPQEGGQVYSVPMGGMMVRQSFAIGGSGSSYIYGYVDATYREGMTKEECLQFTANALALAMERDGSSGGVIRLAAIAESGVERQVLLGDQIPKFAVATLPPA
structure (smiles),measurement,setting,value
O=c1cc(-c2ccc(O)cc2)oc2cc(O)cc(O)c12 [apigenin],IC50,[1],20 µM
same,IC50,[2],11.5 µM
same,IC50,[3],1.5 µM
